Key:
healthy neonatal foal = assay: Neurobehavioural (NB) scoring of a healthy neonatal foal infused i.v. with allopregnanolone; format: in vivo, Quarter Horse
Protocol: A healthy neonatal 50 kg Quarter Horse colt from the research herd at the School of Veterinary Medicine, University of California, Davis was selected for the infusion. The foal was born from a healthy Quarter Horse mare with a normal gestational length without complications, and normal observed parturition except that the placental passage was prolonged. Although retention of the placenta for 7 h post birth is not considered normal by most standards, the placenta was evaluated and determined to be complete and normal. […] The foal was deemed healthy based upon complete physical and neurological examinations immediately post birth. […] Repeat physical and neurological examinations at age 6 h, immediately prior to infusion, were also normal.
(§1) Intravenous catheters were placed aseptically in the right jugular vein for sample collection and in the left jugular vein for infusion of allopregnanolone. Allopregnanolone (5 alpha-pregnan-3 alpha-ol-20-one; Steraloids Inc., Newport, R.I., USA) was dissolved in an ethanol-based solution to a total concentration of 9 mg/ml. Infused dose and concentration of allopregnanolone in this foal were determined based on concentrations reported in in vivo studies in the modulation of the HPA axis in male rats (Naert, et al., (2007) Psychoneuroendocrinology 32, 1062-1078). An initial bolus of 0.05 mg/kg bwt i.v. of allopregnanolone was given followed by a constant rate infusion (CRI) of 0.02 mg/kg bwt/min using an infusion pump. Based on clinical effects of the initial dosage, a second bolus of 0.1 mg/kg bwt i.v. was given after 5 min and followed by a CRI of 0.04 mg/kg bwt/min for 5 min. The infusion was discontinued for 30 min to allow observation of any neurobehavioural (NB) alterations, and then a final bolus of 0.2 mg/kg bwt i.v. was given.
Neurobehavioural alterations were recorded and graded through a NB scoring system developed by the authors for the assessment of foals with NMS (Table 2). From preliminary work, foals with NMS had scores>8 from a range of 0 (normal foal) to 20 (comatose with paroxysmal activity). Mentation was defined as: normal if the foal was alert and responsive; quiet to obtunded if the foal was apparently lethargic but responsive to external stimuli (e.g., touch, sound); stuporous if level of consciousness was decreased but responsive to painful stimuli (e.g. pinching skin with haemostats); and comatose if the foal lost consciousness and was unresponsive to any stimuli. Paroxysmal activity was defined as abnormal events such as seizures or seizure-like activity, rhythmic limb movements, tremors or paddling. The NB scores were calculated at 5 min intervals throughout the infusion period. Following the infusion, the foal was observed hourly for the first 6 h and then at 12 h intervals for 2 days.
For NB comparison, a second age-matched clinically healthy neonatal Quarter Horse colt was infused with 99.9% ethanol diluted with 0.9% saline to a final concentration of 5% ethanol without allopregnanolone. Infusion of this solution followed the same protocol (dosage [based on 5% ethanol] and rate) of administration as for the first foal. The study was approved by an Animal Care and Use protocol from University of California, Davis.

[1] = Plasma steroid and hormone concentrations (LC-MS) in the foal infused with allopregnanolone; format: in vivo, Quarter Horse
Protocol: as §1
Heparinised blood samples were collected at birth, age 6 h and at 15 min intervals during the infusion. Blood was immediately centrifuged following collection and plasma stored at −80° C. until analysed by liquid chromatography mass spectrometry (LC-MS) utilising on-line sample extraction by turbulent flow chromatography (TFC) and detection by select reaction monitoring (SRM) on a triple quadrupole mass spectrometer. […] Free concentrations of 34 steroids were monitored in one analytical method over a 24-min run time. Detection and quantitation was accomplished using 3 or more SRM transitions per compound for all compounds other than 17-hydroxy pregnenolone where single ion monitoring (SIM) was utilised. This method was validated and the following assessed for each analyte: linearity, limit of detection, limit of quantitation, accuracy, precision, matrix effects, extraction recovery and potential endogenous interferences. […]

[2] = age 6 ½ h, 15 minutes post initial infusion

Structure (SMILES): CC(=O)[C@H]1CC[C@H]2[C@@H]3CC[C@H]4C[C@H](O)CC[C@]4(C)[C@H]3CC[C@]12C [allopregnanolone, 5 alpha-pregnan-3 alpha-ol-20-one]
- Time after cessation of the infusion to signs of increased responsiveness (healthy neonatal foal; after cessation of the infusion): ≤ 8 min
- Neurobehavior score (healthy neonatal foal; age 6 ¼ h, bolus 0.05 mg/kg IV, CRI 0.02 mg/kg/min, score scale 0-20): 14
- Neurobehavior score (healthy neonatal foal; [2]): 8
- Neurobehavior score (healthy neonatal foal; age 6 ¾ h, bolus 0.2 mg/kg IV): 15
- NB score (healthy neonatal foal; by 15 min after cessation of the infusion or the final bolus, standing, mild obtundation): 9
- NB score (healthy neonatal foal; by 30 min after infusion, foal appeared normal): 0
- NB score (healthy neonatal foal; infusion of higher concentrations (0.1 and 0.2 mg/kg bwt), foal recumbent, stuporous, unresponsive): 16
- Long-term NB effects following the infusion (healthy neonatal foal; observed hourly for 6 h, then at 12 h intervals for 2 days): No long-term NB effects were observed
- Allopregnanolone plasma concentration ([1]; age 6 ¼ h, bolus 0.05 mg/kg IV, CRI 0.02 mg/kg/min): 478,909 pg/mL
- Allopregnanolone plasma concentration [1, 2]: 126,566 pg/mL
- Allopregnanolone plasma concentration ([1]; age 6 ¾ h, bolus 0.2 mg/kg IV): 466,208 pg/mL

— US9724262B2, “Methods of diagnosing and treating neonatal reversion to fetal consciousness” (The Regents of the University of California, priority 2013, dated 2017)
